Measurements reported in the Kinase Knowledgebase extract (Sharma et al. 2016).

Columns and labels:
[1] = target: MAPK14 (human) (UniProt Q16539); test: Assessment of MAPK14 Kinase Activity
[2] = target: MAPK14 (human) (UniProt Q16539); test: Inhibition of MAPK14 Kinase Activity

MAPK14 (human), sequence (Q16539 whole entry, looked up): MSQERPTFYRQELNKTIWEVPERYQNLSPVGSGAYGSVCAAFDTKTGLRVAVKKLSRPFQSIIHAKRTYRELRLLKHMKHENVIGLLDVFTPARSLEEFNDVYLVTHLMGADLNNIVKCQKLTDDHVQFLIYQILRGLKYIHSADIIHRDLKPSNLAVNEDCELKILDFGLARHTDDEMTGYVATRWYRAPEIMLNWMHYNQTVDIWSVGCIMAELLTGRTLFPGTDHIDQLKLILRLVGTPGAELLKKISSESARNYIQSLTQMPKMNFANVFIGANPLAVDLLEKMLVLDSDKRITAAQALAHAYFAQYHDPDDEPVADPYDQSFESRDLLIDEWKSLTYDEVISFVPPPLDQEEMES

| SMILES | IC50 [1] | IC50 [2] |
| --- | --- | --- |
| CCC(CC)NC(=O)c1ccc(-c2cc(C(=O)NC3CC3)cc(F)c2C)[n+]([O-])c1 | < 10 µM | < 10 µM |
| Cc1c(F)cc(C(=O)NC2CC2)cc1-c1ccc(C(=O)NC(C)c2ccc(Cl)cc2)c[n+]1[O-] (centres undefined) | < 10 µM | < 10 µM |
| CCc1ccccc1CNC(=O)c1ccc(-c2cc(C(=O)NC3CC3)cc(F)c2C)[n+]([O-])c1 | < 10 µM | < 10 µM |
| Cc1c(F)cc(C(=O)NC2CC2)cc1-c1ccc(C(=O)NCc2ccc(C(F)(F)F)cc2C(F)(F)F)c[n+]1[O-] | < 10 µM | < 10 µM |
| COC[C@H](C)NC(=O)c1ccc(-c2cc(C(=O)NC3CC3)cc(F)c2C)[n+]([O-])c1 | < 10 µM | < 10 µM |
| Cc1c(F)cc(C(=O)NC2CC2)cc1-c1ccc(C(=O)N[C@H](C)C(C)C)c[n+]1[O-] | < 10 µM | < 10 µM |

Next, values leading:

| IC50 [1] | IC50 [2] | SMILES |
| --- | --- | --- |
| < 10 µM | < 10 µM | CCC(C)(C)NC(=O)c1ccc(-c2cc(C(=O)NC3CC3)cc(F)c2C)[n+]([O-])c1 |
| < 10 µM | < 10 µM | CCCNC(=O)c1ccc(-c2cc(C(=O)NC3CC3)cc(F)c2C)[n+]([O-])c1 |
| < 10 µM | < 10 µM | Cc1c(F)cc(C(=O)NC2CC2)cc1-c1ccc(C(=O)NCC(C)(C)C)c[n+]1[O-] |
| < 10 µM | < 10 µM | CCC1CCCN(C(=O)c2ccc(-c3cc(C(=O)NC4CC4)cc(F)c3C)[n+]([O-])c2)C1 (centres undefined) |
| < 10 µM | < 10 µM | Cc1ccc(CNC(=O)c2ccc(-c3cc(C(=O)NC4CC4)cc(F)c3C)[n+]([O-])c2)cc1C |
| < 10 µM | < 10 µM | Cc1ccc(C)c(CNC(=O)c2ccc(-c3cc(C(=O)NC4CC4)cc(F)c3C)[n+]([O-])c2)c1 |
